Values quoted from earlier work, collected in patent US10052295B2, “Method, composition and package for bowel cleansing” (priority 2011, dated 2018).

watery feces (doses over 35 grams, compared with erythritol (Storey 2006)) | SMILES | GI symptoms (doses as high as 50 mg (Storey 2006)) | toxic effects in humans (doses as high as 50 grams per day for over two years (Makinen 1976))
 | OC[C@@H](O)[C@@H](O)CO [erythritol] | not reported to produce any significant GI symptoms | 
significantly more watery feces | OC[C@@H](O)[C@H](O)[C@@H](O)CO [xylitol] |  | no toxic effects
